Experimental data reported in patent publication US8088806B2 (Achillion Pharmaceuticals, Inc., priority 2005, dated 2012).

Each compound was assayed on HCV replicon (assay: Replicon based assay of HCV replication inhibition (NPT ELISA)). Settings: Hepatitis C virus, Huh-7, 72 h, Table III; Huh-7 HCV replicon-containing cells, three days; read-out: Activity.
Assay type: cell-based, Hepatitis C virus
Summary of the method: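 Huh-7 cells carrying a bicistronic HCV replicon (neo, EMCV-IRES-driven NS3–NS5B) treated overnight after seeding with usually 6 concentrations, 10 to 0.03 micromolar, for three days at 37° C without G418. Replication read as NPT level by captured ELISA; matched-DMSO wells and interferon alpha as controls.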

SMILES | EC50
FC(F)(F)c1cc(Nc2nc(-c3cnccn3)cs2)ccc1OC1CCCC1 [compound 606, N-(4-(cyclopentyloxy)-3-(trifluoromethyl)phenyl)-4-(pyrazin-2-yl)thiazol-2-amine] | < 1 µM
CCCCCOc1ccc(Nc2nc(Cc3ccc(F)c(F)c3)cs2)cc1C(F)(F)F [compound 607, 4-(3,4-difluorobenzyl)-N-(3-(trifluoromethyl)-4-(pentyloxy)phenyl)thiazol-2-amine] | 1 to 10 µM
CCCCCCCCOc1ccc(Nc2nc(Cc3ccc(F)c(F)c3)cs2)cc1 [compound 608, 4-(3,4-difluorobenzyl)-N-(4-(octyloxy)phenyl)thiazol-2-amine] | > 10 µM
CCCCCCCCOc1ccc(Nc2nc(Cc3ccc(F)c(F)c3)cs2)cc1C(F)(F)F [compound 609, 4-(3,4-difluorobenzyl)-N-(3-(trifluoromethyl)-4-(octyloxy)phenyl)thiazol-2-amine] | 1 to 10 µM
CCCCCOc1ccc(Nc2nc(Cc3ccc(F)c(F)c3)cs2)cc1F [compound 610, 4-(3,4-difluorobenzyl)-N-(3-fluoro-4-(pentyloxy)phenyl)thiazol-2-amine] | > 10 µM
CCCCCN(C)c1ccc(Nc2nc(Cc3ccc(F)c(F)c3)cs2)cc1C(F)(F)F [compound 611, N^4-(4-(3,4-difluorobenzyl)thiazol-2-yl)-2-(trifluoromethyl)-N^1-methyl-N^1-pentylbenzene-1,4-diamine] | > 10 µM
CCCCCCCCN(C)c1ccc(Nc2nc(Cc3ccc(F)c(F)c3)cs2)cc1 [compound 612, N^1-(4-(3,4-difluorobenzyl)thiazol-2-yl)-N^4-methyl-N^4-octylbenzene-1,4-diamine] | > 10 µM
CCCCCCCCOc1ccc(Nc2nc(-c3ccc(C#N)nc3)cs2)cc1C(F)(F)F [compound 613, 5-(2-(3-(trifluoromethyl)-4-(octyloxy)phenylamino)thiazol-4-yl)pyridine-2-carbonitrile] | < 1 µM
N#Cc1ccc(-c2csc(Nc3ccc(OCCCC4CCCC4)c(C(F)(F)F)c3)n2)cn1 [compound 614] | < 1 µM
CCCCCOc1ccc(Nc2nc(-c3ccc(C#N)nc3)cs2)cc1F [compound 615, 5-(2-(3-fluoro-4-(pentyloxy)phenylamino)thiazol-4-yl)pyridine-2-carbonitrile] | < 1 µM
N#Cc1ccc(-c2csc(Nc3ccc(OC4CCCC4)c(C(F)(F)F)c3)n2)cn1 [compound 616, 5-(2-(4-(cyclopentyloxy)-3-(trifluoromethyl)phenylamino)thiazol-4-yl)pyridine-2-carbonitrile] | < 1 µM
CCCCCCCCOc1ccc(Nc2nc(-c3cncnc3)cs2)cc1C(F)(F)F [compound 617, N-(3-(trifluoromethyl)-4-(octyloxy)phenyl)-4-(pyrimidin-5-yl)thiazol-2-amine] | < 1 µM
CCCCCOc1ccc(Nc2nc(-c3cncnc3)cs2)cc1F [compound 618, N-(3-fluoro-4-(pentyloxy)phenyl)-4-(pyrimidin-5-yl)thiazol-2-amine] | < 1 µM
CCCCCCCCOc1ccc(Nc2nc(-c3cnc(Cl)nc3)cs2)cc1 [compound 619, 4-(2-chloropyrimidin-5-yl)-N-(4-(octyloxy)phenyl)thiazol-2-amine] | < 1 µM
CCCCCCCCOc1ccc(Nc2nc(-c3cnc(Cl)nc3)cs2)cc1C(F)(F)F [compound 620, 4-(2-chloropyrimidin-5-yl)-N-(3-(trifluoromethyl)-4-(octyloxy)phenyl)thiazol-2-amine] | < 1 µM
FC(F)(F)c1cc(Nc2nc(-c3cncnc3)cs2)ccc1OC1CCCC1 [compound 621, N-(4-(cyclopentyloxy)-3-(trifluoromethyl)phenyl)-4-(pyrimidin-5-yl)thiazol-2-amine] | < 1 µM

SMILES | EC50
FC(F)(F)c1cc(Nc2nccs2)ccc1OCCCC1CCCC1 [compound 622, N-(4-(3-cyclopentylpropoxy)-3-(trifluoromethyl)phenyl)thiazol 2-amine] | < 1 µM
CCCCCCCCOc1ccc(Nc2nccs2)cc1 [compound 623, N-(4-(octyloxy)phenyl)thiazol-2-amine] | < 1 µM
CCCCCCCCN(C)c1ccc(Nc2nccs2)cc1C(F)(F)F [compound 624, 2-(trifluoromethyl)-N^1-methyl-N^1-octyl-N^4-(thiazol-2-yl)benzene-1,4-diamine] | < 1 µM
CCCCCOc1ccc(Nc2nc(Cc3ccc(F)cc3)cs2)cc1C(F)(F)F [compound 627, 4-(4-fluorobenzyl)-N-(3-(trifluoromethyl)-4-(pentyloxy)phenyl)thiazol-2-amine] | < 1 µM
CCCCCCCCOc1ccc(Nc2nc(Cc3ccc(F)cc3)cs2)cc1 [compound 628, 4-(4-fluorobenzyl)-N-(4-(octyloxy)phenyl)thiazol-2-amine] | 1 to 10 µM
CCCCCCCCOc1ccc(Nc2nc(Cc3ccc(F)cc3)cs2)cc1C(F)(F)F [compound 629, 4-(4-fluorobenzyl)-N-(3-(trifluoromethyl)-4-(octyloxy)phenyl)thiazol-2-amine] | < 1 µM
CCCCCOc1ccc(Nc2nc(Cc3ccc(F)cc3)cs2)cc1F [compound 630, 4-(4-fluorobenzyl)-N-(3-fluoro-4-(pentyloxy)phenyl)thiazol-2-amine] | > 10 µM
CCCCCN(C)c1ccc(Nc2nc(Cc3ccc(F)cc3)cs2)cc1C(F)(F)F [compound 631, N^4-(4-(4-fluorobenzyl)thiazol-2-yl)-2-(trifluoromethyl)-N^1-methyl-N^1-pentylbenzene-1,4-diamine] | > 10 µM
CCCCCCCCN(C)c1ccc(Nc2nc(Cc3ccc(F)cc3)cs2)cc1 [compound 632, N^1-(4-(4-fluorobenzyl)thiazol-2-yl)-N^4-methyl-N^4-octylbenzene-1,4-diamine] | > 10 µM
CCCCCOc1ccc(Nc2nc(Cc3ccc(Cl)cc3)cs2)cc1C(F)(F)F [compound 633, 4-(4-chlorobenzyl)-N-(3-(trifluoromethyl)-4-(pentyloxy)phenyl)thiazol-2-amine] | 1 to 10 µM
CCCCCCCCOc1ccc(Nc2nc(Cc3ccc(Cl)cc3)cs2)cc1 [compound 634, 4-(4-chlorobenzyl)-N-(4-(octyioxy)phenyl)thiazol-2-amine] | > 10 µM
CCCCCCCCOc1ccc(Nc2nc(Cc3ccc(Cl)cc3)cs2)cc1C(F)(F)F [compound 635, 4-(4-chlorobenzyl)-N-(3-(trifluoromethyl)-4-(octyloxy)phenyl)thiazol-2-amine] | 1 to 10 µM
CCCCCOc1ccc(Nc2nc(Cc3ccc(Cl)cc3)cs2)cc1F [compound 636, 4-(4-chlorobenzyl)-N-(3-fluoro-4-(pentyloxy)phenyl)thiazol-2-amine] | > 10 µM
CCCCCCCCN(C)c1ccc(Nc2nc(Cc3ccc(Cl)cc3)cs2)cc1 [compound 638, N^1-(4-(4-chlorobenzyl)thiazol-2-yl)-N^4-methyl-N^4-octylbenzene-1,4-diamine] | 1 to 10 µM
CCCCCOc1ccc(Nc2nc(Cc3ccc(OC)cc3)cs2)cc1C(F)(F)F [compound 639, 4-(4-methoxybenzyl)-N-(3-(trifluoromethyl)-4-(pentyloxy)phenyl)thiazol-2-amine] | 1 to 10 µM
CCCCCCCCOc1ccc(Nc2nc(Cc3ccc(OC)cc3)cs2)cc1 [compound 640, 4-(4-methoxybenzyl)-N-(4-(octyloxy)phenyl)thiazol-2-amine] | > 10 µM
